In the supplement of paper PMC10307832:

Tests used:
Assay in all cases: relative viability (nuclei count vs DMSO), 5 days (fraction); higher = more cells survive
[1] = compound: O=c1[nH]cc(F)c(=O)[nH]1 [5-Fluorouracil] + O=C(c1cc(Cc2n[nH]c(=O)c3ccccc23)ccc1F)N1CCN(C(=O)C2CC2)CC1 [Olaparib] (partner 8 µM)
Outline: (§1)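 Five library-drug doses in √10 steps were combined with a fixed anchor-drug dose, or a single drug was given alone, by pin tool to lung cancer cell lines in 1536-well plates the day after seeding. Nuclei were stained and counted after 5 days. Relative viability is the nuclei count in treated wells over that in vehicle wells, taken as the median of duplicate plates.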

[2] = compound: CC1=C(CC(=O)O)c2cc(F)ccc2/C1=C\c1ccc([S+](C)[O-])cc1 [Sulindac] + CC(=O)Nc1cccc(-n2c(=O)n(C3CC3)c(=O)c3c(Nc4ccc(I)cc4F)n(C)c(=O)c(C)c32)c1 [Trametinib] (partner 0.02 µM)
Outline: as §1

[3] = compound: O=c1[nH]cc(F)c(=O)[nH]1 [5-Fluorouracil] + N=C(N)NC(=N)NCCc1ccccc1 [Phenformin] (partner 250 µM)
Outline: as §1

[4] = compound: O=c1[nH]cc(F)c(=O)[nH]1 [5-Fluorouracil] + CC1(C)CCC(c2ccc(Cl)cc2)=C(CN2CCN(c3ccc(C(=O)NS(=O)(=O)c4ccc(N[C@H](CCN5CCOCC5)CSc5ccccc5)c(S(=O)(=O)C(F)(F)F)c4)cc3)CC2)C1 [Navitoclax] (partner 0.5 µM)
Outline: as §1

| Cell Line | relative viability ([1]; first compound 0.02 µM) | relative viability ([1]; first compound 0.6325 µM) | relative viability ([1]; first compound 2 µM) | relative viability ([2]; first compound 0.08 µM) | relative viability ([2]; first compound 0.253 µM) | relative viability ([2]; first compound 0.8 µM) | relative viability ([2]; first compound 2.53 µM) | relative viability ([2]; first compound 8 µM) | relative viability ([3]; first compound 0.02 µM) | relative viability ([3]; first compound 0.2 µM) | relative viability ([3]; first compound 0.6325 µM) | relative viability ([3]; first compound 2 µM) | relative viability ([4]; first compound 0.02 µM) | relative viability ([4]; first compound 0.2 µM) | relative viability ([4]; first compound 0.6325 µM) | relative viability ([4]; first compound 2 µM) | relative viability ([1]; first compound 0.2 µM) |
| --- | --- | --- | --- | --- | --- | --- | --- | --- | --- | --- | --- | --- | --- | --- | --- | --- | --- |
| 201T | 0.82 | 0.252 | 0.249 | 0.763 | 0.732 | 0.717 | 0.695 | 0.712 | 0.423 | 0.378 | 0.288 | 0.297 | 1.18 | 1.01 | 0.543 | 0.42 | – |
| A549 | 0.298 | 0.202 | 0.0825 | – | – | – | – | – | 0.172 | 0.258 | 0.153 | 0.0868 | 1.2 | 0.754 | 0.244 | 0.114 | 0.501 |
| A-427 | 0.68 | 0.674 | 0.385 | 0.685 | 0.709 | 0.732 | 0.673 | 0.848 | 0.29 | 0.461 | 0.279 | 0.212 | 0.827 | 0.999 | 0.879 | 0.438 | 0.521 |
| ABC-1 | 0.782 | 1 | 0.51 | – | – | – | – | – | 0.202 | 0.253 | 0.257 | 0.23 | – | – | – | – | 0.716 |
| BEN | 1.01 | 0.907 | 0.913 | 0.975 | 1.03 | 0.934 | 1.02 | 1.13 | 0.255 | 0.257 | 0.285 | 0.251 | 0.0616 | 0.276 | 0.0857 | 0.0672 | 0.851 |
| CAL-12T | 0.701 | 0.638 | 0.365 | 0.285 | 0.357 | 0.343 | 0.312 | 0.361 | 0.616 | 0.614 | 0.37 | 0.425 | 1.13 | 1.25 | 0.974 | 0.489 | 0.634 |
| COR-L23 | 0.36 | 0.273 | 0.18 | 0.653 | 0.671 | 0.357 | 0.548 | 0.725 | 0.4 | 0.427 | 0.278 | 0.228 | 1.05 | 0.949 | 0.533 | 0.239 | 0.312 |
| COR-L 105 | 0.713 | 0.58 | 0.512 | 0.374 | 0.472 | 0.445 | 0.45 | 0.449 | 0.452 | 0.495 | 0.45 | 0.337 | 0.707 | 0.685 | 0.694 | 0.582 | 0.792 |
| Calu-6 | 0.535 | 0.519 | 0.347 | – | – | – | – | – | – | – | – | – | 0.859 | 0.786 | 0.679 | 0.362 | 0.557 |
| ChaGo-K-1 | 0.36 | 0.321 | 0.25 | 1.05 | 0.963 | 0.817 | 0.914 | 0.903 | 0.526 | 0.476 | 0.433 | 0.348 | 0.956 | 1.07 | 0.672 | 0.685 | 0.393 |
| EBC-1 | 0.769 | 0.759 | 0.44 | – | – | – | – | – | – | – | – | – | 0.342 | 0.405 | 0.44 | 0.339 | 0.772 |
| EKVX | 0.667 | – | 0.169 | 0.299 | 0.34 | 0.292 | 0.335 | 0.333 | 0.18 | 0.179 | 0.13 | 0.134 | 0.847 | 0.283 | 0.142 | 0.124 | 0.277 |
| EMC-BAC-2 | 0.479 | 0.45 | 0.469 | 1.03 | 0.917 | 0.794 | 0.794 | 0.994 | 0.625 | 0.542 | 0.498 | 0.51 | 1.19 | 1.2 | 1.25 | 1.19 | 0.53 |
| EPLC-272H | 0.737 | 0.32 | 0.21 | 0.195 | – | 0.266 | 0.245 | 0.279 | 0.247 | 0.257 | 0.245 | 0.184 | 1.18 | 0.79 | 0.372 | 0.259 | 0.67 |
| H3255 | 0.573 | 0.578 | 0.556 | 0.635 | 0.661 | 0.509 | 0.699 | 0.656 | 0.35 | 0.393 | 0.35 | 0.351 | 0.566 | 0.795 | 0.454 | 0.419 | 0.578 |
| HARA | 0.775 | 0.623 | 0.845 | 0.516 | 0.926 | 0.777 | 0.715 | 0.735 | 0.426 | 0.559 | 0.455 | 0.27 | 1.12 | 1.15 | 1.11 | 1.15 | 1.01 |
| HCC-15 | 0.741 | 0.521 | 0.33 | 0.415 | 0.395 | 0.375 | 0.347 | 0.283 | 0.563 | 0.532 | 0.332 | 0.27 | 0.761 | 0.77 | 0.469 | 0.298 | 0.707 |
| HCC-44 | 1.03 | 0.979 | 0.651 | 1.11 | 1.13 | 0.969 | 1.26 | 1.02 | – | 0.262 | 0.154 | 0.182 | 0.916 | 0.984 | 0.744 | 0.341 | 1.02 |
| HCC-78 | 0.755 | 0.331 | 0.28 | 0.844 | 0.865 | 0.647 | 0.81 | 0.824 | 0.697 | 0.706 | 0.558 | 0.312 | 0.55 | 0.805 | 0.285 | – | 0.599 |
| HCC-366 | 0.387 | 0.199 | 0.0788 | 0.359 | 0.384 | – | 0.357 | 0.396 | 0.562 | 0.622 | 0.424 | 0.0966 | 1.19 | 0.992 | 0.545 | 0.125 | 0.397 |
| HCC-827 | 0.336 | 0.552 | 0.304 | 0.525 | 0.571 | 0.526 | 0.489 | 0.506 | 0.363 | 0.37 | 0.414 | 0.29 | 0.969 | 1 | 0.592 | 0.382 | 0.647 |
